biological target: T1, full-length beta-Catenin (Uniprot ID P35222) (Homo sapiens, UniProt P35222); test: Fluorescence polarization IC50 (beta-catenin / 5FAM-TCF4 10-53 competition); type: binding; conditions: fluorescence polarization, beta-catenin; read-out: FP EC50
T1 construct: 10 nM full-length beta-Catenin (Uniprot ID P35222)
T1 sequence (P35222 1-781): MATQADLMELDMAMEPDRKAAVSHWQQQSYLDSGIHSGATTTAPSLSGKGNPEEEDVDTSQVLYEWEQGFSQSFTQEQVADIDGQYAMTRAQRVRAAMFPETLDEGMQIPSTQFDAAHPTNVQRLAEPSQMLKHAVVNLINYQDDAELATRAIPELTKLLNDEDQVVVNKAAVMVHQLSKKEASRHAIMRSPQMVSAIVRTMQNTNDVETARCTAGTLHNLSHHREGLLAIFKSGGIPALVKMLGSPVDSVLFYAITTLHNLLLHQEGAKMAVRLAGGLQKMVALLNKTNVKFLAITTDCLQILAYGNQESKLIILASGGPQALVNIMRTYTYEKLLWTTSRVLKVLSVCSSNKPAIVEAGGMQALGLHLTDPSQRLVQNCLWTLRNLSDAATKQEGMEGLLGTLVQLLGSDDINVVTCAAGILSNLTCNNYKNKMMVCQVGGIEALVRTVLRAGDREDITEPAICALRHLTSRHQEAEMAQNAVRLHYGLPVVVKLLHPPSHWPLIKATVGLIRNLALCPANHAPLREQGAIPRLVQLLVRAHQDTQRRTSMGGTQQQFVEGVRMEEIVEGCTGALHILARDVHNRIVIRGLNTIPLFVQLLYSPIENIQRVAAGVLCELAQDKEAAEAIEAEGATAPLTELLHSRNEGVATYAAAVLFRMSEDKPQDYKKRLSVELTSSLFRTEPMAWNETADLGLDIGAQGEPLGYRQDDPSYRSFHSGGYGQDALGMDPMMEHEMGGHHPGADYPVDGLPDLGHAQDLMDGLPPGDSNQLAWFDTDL

Row | Compound | IC50
1 | CC(=O)N1CCC[C@]12CC=CCCCC1(CCCC=CCCCOC(=O)N3CC[C@@](C(=O)N[C@@H](Cc4ccsc4)C(=O)N[C@@H](Cc4csc5ccccc45)C(=O)N[C@@H](CCC(N)=O)C(=O)O)(C3)NC(=O)[C@H](CC(N)=O)NC(=O)[C@H](CC(=O)O)NC(=O)[C@H](C)NC(=O)[C@H](C)NC(=O)[C@H](CC(=O)O)NC(=O)[C@H](CC(=O)O)NC1=O)NC(=O)[C@H](CC(C)(C)C)NC(=O)[C@H](Cc1ccccc1)NC2=O (stereo partly drawn) [I-1027, Ac-PL3-Phe-Npg-B5-Asp-Asp-Ala-Ala-Asp-Asn-PyrS2-3Thi-BztA-Gln-OH] | 1140 nM
2 | CC(=O)N1CCC[C@]12CC=CCCCC1(CCCC=CCCCOC(=O)N3CC[C@@](C(=O)N[C@@H](Cc4ccccc4Cl)C(=O)N[C@@H](Cc4csc5ccccc45)C(=O)N[C@@H](CN4CCOCC4)C(N)=O)(C3)NC(=O)[C@H](CC(N)=O)NC(=O)[C@H](Cc3ccccc3)NC(=O)[C@H](C)NC(=O)[C@H](C)NC(=O)[C@H](CC(=O)O)NC(=O)[C@H](CC(=O)O)NC1=O)NC(=O)[C@H](CC(C)(C)C)NC(=O)[C@H](CC(=O)O)NC2=O (stereo partly drawn) [I-1134, Ac-PL3-Asp-Npg-B5-Asp-Asp-Ala-Ala-Phe-Asn-PyrS2-2C1F-BztA-MorphAla-NH2] | 6 nM

same assay, conditions: fluorescence polarization; read-out: beta-Catenin FP IC50

Row | Compound | IC50
3 | C[C@@H]1NC(=O)[C@H](C)NC(=O)[C@H](CC(=O)O)NC(=O)[C@H](CC(=O)O)NC(=O)C2(CCCC=CCCCOC(=O)N3CC[C@@](C(=O)N[C@@H](Cc4ccsc4)C(=O)N[C@@H](Cc4csc5ccccc45)C(=O)N[C@@H](CCC(N)=O)C(N)=O)(C3)NC(=O)[C@H](CC(N)=O)NC(=O)[C@H](Cc3ccccc3)NC1=O)CCCC=CCS(=O)(=O)N1CCCC1C(=O)N[C@@H](CC(=O)O)C(=O)N[C@@H](CC(C)(C)C)C(=O)N2 (single isomer, unassigned) [I-1576, ProSAm3-Asp-Npg-B5-Asp-Asp-Ala-Ala-Phe-Asn-PyrS2-3Thi-BztA-Gln-NH2] | 224 nM
4 | C[C@@H]1NC(=O)[C@H](C)NC(=O)[C@H](CC(=O)O)NC(=O)[C@H](CC(=O)O)NC(=O)C2(CCCC=CCCCOC(=O)N3CC[C@@](C(=O)N[C@@H](Cc4ccsc4)C(=O)N[C@@H](Cc4csc5ccccc45)C(=O)N[C@@H](CCC(N)=O)C(N)=O)(C3)NC(=O)[C@H](CC(N)=O)NC(=O)[C@H](Cc3ccccc3)NC1=O)CCCC=CCS(=O)(=O)N1CCCC1C(=O)N[C@@H](CC(=O)O)C(=O)N[C@@H](CC(C)(C)C)C(=O)N2 (single isomer, unassigned) [I-1577, ProSAm3-Asp-Npg-B5-Asp-Asp-Ala-Ala-Phe-Asn-PyrS2-3Thi-BztA-Gln-NH2] | 45 nM
5 | CC(=O)N1CCC[C@]12CC=CCCCC1(CCCC=CCCCOC(=O)N3CC[C@@](C(=O)N[C@@H](Cc4ccccc4C(F)(F)F)C(=O)N[C@@H](Cc4csc5ccccc45)C(=O)N[C@@H](CO)C(N)=O)(C3)NC(=O)[C@H](CC(C)C)NC(=O)[C@H](Cc3ccccc3)NC(=O)[C@H](C)NC(=O)[C@H](C)NC(=O)[C@H](Cc3ccccc3C(=O)O)NC(=O)[C@H](CC(=O)O)NC1=O)NC(=O)[C@H](CC(C)(C)C)NC(=O)[C@H](CC(=O)O)NC2=O (single isomer, unassigned) [I-1660, Ac-PL3-Asp-Npg-B5-Asp-2COOHF-Ala-Ala-Phe-Leu-PyrS2-2F3MeF-BztA-Ser-NH2] | 99 nM
6 | CC(=O)N1CCC[C@]12CC=CCCCC1(CCCC=CCCCOC(=O)N3CC[C@@](C(=O)N[C@@H](Cc4ccsc4)C(=O)N[C@@H](Cc4csc5ccccc45)C(=O)N[C@@H](CCC(N)=O)C(N)=O)(C3)NC(=O)[C@H](CC(N)=O)NC(=O)[C@H](Cc3ccccc3)NC(=O)[C@H](C)NC(=O)[C@H](C)NC(=O)[C@H]([C@@H](C)O)NC(=O)[C@H](CC(N)=O)NC1=O)NC(=O)[C@H](CC(C)(C)C)NC(=O)[C@H](Cc1ccccc1C(=O)O)NC2=O (single isomer, unassigned) [I-2136, Ac-PL3-2COOHF-Npg-B5-Asn-Thr-Ala-Ala-Phe-Asn-PyrS2-3Thi-BztA-Gln-NH2] | 5820 nM
7 | CC(=O)N1CCC[C@]12CC=CCCCC1(CCCC=CCCCOC(=O)N3CC[C@@](C(=O)N[C@@H](Cc4ccsc4)C(=O)N[C@@H](Cc4csc5ccccc45)C(=O)N[C@@H](CCC(N)=O)C(N)=O)(C3)NC(=O)[C@H](CC(N)=O)NC(=O)[C@H](Cc3ccccc3)NC(=O)[C@H](C)NC(=O)[C@H](C)NC(=O)[C@H]([C@@H](C)O)NC(=O)[C@H](CC(N)=O)NC1=O)NC(=O)[C@H](CC(C)(C)C)NC(=O)[C@H](Cc1ccccc1C(=O)O)NC2=O (single isomer, unassigned) [I-2137, Ac-PL3-2COOHF-Npg-B5-Asn-Thr-Ala-Ala-Phe-Asn-PyrS2-3Thi-BztA-Gln-NH2] | 1900 nM
8 | CC(=O)N1CCC[C@]12CC=CCCCC1(CCCC=CCCCOC(=O)N3CC[C@@](C(=O)N[C@@H](Cc4ccsc4)C(=O)N[C@@H](Cc4csc5ccccc45)C(=O)N[C@@H](CCC(N)=O)C(N)=O)(C3)NC(=O)[C@H](CC(C)C)NC(=O)C(Cc3cccc(C(=O)Oc4ccccc4)c3)NC(=O)[C@H](C)NC(=O)[C@H](C)NC(=O)[C@H](CN(CC(=O)O)CC(F)(F)F)NC(=O)[C@H](CC(=O)O)NC1=O)NC(=O)[C@H](CC(C)(C)C)NC(=O)[C@H](CC(=O)O)NC2=O (single isomer, unassigned) [I-2150, Ac-PL3-Asp-Npg-B5-Asp-TfeGA-Ala-Ala-3CO2PhF-Leu-PyrS2-3Thi-BztA-Gln-NH2] | 647 nM
9 | CNC(=O)C[C@@H]1NC(=O)C2(CCCC=CCCCCCC[C@@](C)(C(=O)N[C@@H](Cc3ccccc3)C(=O)N[C@@H](Cc3csc4ccccc34)C(=O)N[C@@H](CCC(N)=O)C(N)=O)NC(=O)[C@H](C(C)C)NC(=O)[C@H](Cc3ccccc3)NC(=O)[C@H](C)NC(=O)[C@H](C)NC(=O)[C@H](CC(=O)O)NC1=O)CCCC=CC[C@]1(CCCN1C(C)=O)C(=O)N[C@@H](CC(=O)O)C(=O)N[C@@H](C)C(=O)N2 (stereo partly drawn) [I-540, Ac-PL3-Asp-Ala-B5-[NHMe]AsnR-Asp-Ala-Ala-Phe-Val-S8-Phe-BztA-Gln-NH2] | 5000 nM
10 | CC(=O)N1CCC[C@]12CC=CCCCC1(CCCC=CCCCOC(=O)N3CC[C@@](C(=O)N[C@@H](Cc4ccccc4Cl)C(=O)N[C@@H](Cc4csc5ccccc45)C(=O)N[C@@H](CN4CCOCC4)C(N)=O)(C3)NC(=O)[C@H](CC(N)=O)NC(=O)[C@H](Cc3ccccc3)NC(=O)[C@H](C)NC(=O)[C@H](C)NC(=O)[C@H](CC(=O)O)NC(=O)[C@H](CC(=O)O)NC1=O)NC(=O)[C@H](CC(C)(C)C)NC(=O)[C@H](CC(=O)O)NC2=O (stereo partly drawn) [I-1133, Ac-PL3-Asp-Npg-B5-Asp-Asp-Ala-Ala-Phe-Asn-PyrS2-2C1F-BztA-MorphAla-NH2] | 5 nM
11 | CC(=O)N1CCC[C@]12CC=CCCCC1(CCCC=CCCCOC(=O)N3CC[C@@](C(=O)N[C@@H](Cc4ccccc4Cl)C(=O)N[C@@H](Cc4csc5ccccc45)C(=O)N[C@@H](CN4CCOCC4)C(N)=O)(C3)NC(=O)[C@H](CC(N)=O)NC(=O)[C@H](Cc3ccccc3)NC(=O)[C@H](C)NC(=O)[C@H](C)NC(=O)[C@H](CC(=O)O)NC(=O)[C@H](CC(=O)O)NC1=O)NC(=O)[C@H](CC(C)(C)C)NC(=O)[C@H](CC(=O)O)NC2=O (stereo partly drawn) [I-1134, Ac-PL3-Asp-Npg-B5-Asp-Asp-Ala-Ala-Phe-Asn-PyrS2-2C1F-BztA-MorphAla-NH2] | 6 nM
12 | CC(=O)N1CCC[C@]12CC=CCCCC1(CCCC=CCCCOC(=O)N3CC[C@@](C(=O)N[C@@H](Cc4ccccc4Cl)C(=O)N[C@@H](Cc4csc5ccccc45)C(=O)N[C@@H](CCC(N)=O)C(N)=O)(C3)NC(=O)[C@H](CO)NC(=O)[C@H](Cc3ccccc3)NC(=O)[C@H](CC(C)C)NC(=O)[C@H](C)NC(=O)[C@H](CC(=O)O)NC(=O)[C@H](CC(=O)O)NC1=O)NC(=O)[C@H](Cc1ccccc1)NC(=O)[C@H](CC(=O)O)NC2=O (stereo partly drawn) [I-1154, Ac-PL3-Asp-Phe-B5-Asp-Asp-Ala-Leu-Phe-Ser-PyrS2-2C1F-BztA-Gln-NH2] | 45 nM
13 | CC(=O)N1CCC[C@]12CC=CCCCC1(CCCC=CCCCOC(=O)N3CC[C@@](C(=O)N[C@@H](Cc4ccccc4Cl)C(=O)N[C@@H](Cc4csc5ccccc45)C(=O)N[C@@H](CCC(N)=O)C(N)=O)(C3)NC(=O)[C@H](CO)NC(=O)[C@H](Cc3ccccc3)NC(=O)[C@H](CC(C)C)NC(=O)[C@H](CC(C)C)NC(=O)[C@H](CC(=O)O)NC(=O)[C@H](CC(=O)O)NC1=O)NC(=O)[C@H](Cc1ccccc1)NC(=O)[C@H](CC(=O)O)NC2=O (stereo partly drawn) [I-1155, Ac-PL3-Asp-Phe-B5-Asp-Asp-Leu-Leu-Phe-Ser-PyrS2-2C1F-BztA-Gln-NH2] | 60 nM
14 | CC(=O)N1CCC[C@]12CC=CCCCC1(CCCC=CCCCOC(=O)N3CC[C@@](C(=O)N[C@@H](Cc4ccsc4)C(=O)N[C@@H](Cc4csc5ccccc45)C(=O)N[C@@H](CCC(N)=O)C(N)=O)(C3)NC(=O)[C@H](CC(N)=O)NC(=O)[C@H](Cc3ccccc3)NC(=O)[C@H](C)NC(=O)[C@H](C)NC(=O)[C@H](CN(CC(=O)O)CC(F)(F)F)NC(=O)[C@H](CC(=O)O)NC1=O)NC(=O)[C@H](CC(C)(C)C)NC(=O)[C@H](CC(=O)O)N(C)C2=O (stereo partly drawn) [I-1162, Ac-PL3-NMeD-Npg-B5-Asp-TfeGA-Ala-Ala-Phe-Asn-PyrS2-3Thi-BztA-Gln-NH2] | 1530 nM

same assay, conditions: read-out: beta-Catenin FP IC50

Row | Compound | IC50
15 | CC(=O)N1CCC[C@]12CC=CCCCC1(CCCC=CCCCOC(=O)N3CC[C@@](C(=O)N[C@@H](Cc4ccccc4Cl)C(=O)N[C@@H](Cc4csc5ccccc45)C(=O)N4CCC[C@H]4CO)(C3)NC(=O)[C@H](CC(N)=O)NC(=O)[C@H](Cc3ccccc3)NC(=O)[C@H](C)NC(=O)[C@H](C)NC(=O)[C@H](CC(=O)O)NC(=O)[C@H](CC(=O)O)NC1=O)NC(=O)[C@H](CC(C)(C)C)NC(=O)[C@H](CC(=O)O)NC2=O (stereo partly drawn) [I-1084, Ac-PL3-Asp-Npg-B5-Asp-Asp-Ala-Ala-Phe-Asn-PyrS2-2C1F-BztA-Proo1] | 368 nM

Reference: patent US20240116985A1, “STAPLED PEPTIDES AND METHODS THEREOF” (priority 2020, published 2024)
